In PubChem BioAssay (NCI):
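Growth conditions: 96-well plates. Treatment: test compound, 48 hours, 5 concentrations. Analysis: linear interpolation between bracketing concentrations; unreached endpoints set to highest concentration. The concentration for full growth arrest is given as TGI.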

Assays:
Assay in all cases: growth of human tumour cells (NCI), 48 h
[1] = system: RXF 393 renal
[2] = system: NCI-H23 lung
[3] = system: HCC-2998 colon
[4] = system: SK-MEL-2 melanoma
[5] = system: NCI-H226 lung
[6] = system: K-562 leukemia
[7] = system: UACC-257 melanoma
[8] = system: A549 NSCLC
[9] = system: MOLT-4 leukemia
[10] = system: NCI/ADR-RES ovarian
[11] = system: TK-10 renal
[12] = system: HOP-62 NSCLC
[13] = system: HT29 colon
[14] = system: SK-MEL-5 melanoma
[15] = system: OVCAR-4 ovarian
[16] = system: MDA-MB-231 breast
[17] = system: SF-268 CNS
[18] = system: UACC-62 melanoma
[19] = system: NCI-H522 lung
[20] = system: SN12C renal
[21] = system: SNB-75 CNS
[22] = system: BT-549 breast
[23] = system: SK-OV-3 ovarian
[24] = system: EKVX NSCLC
[25] = system: LOX IMVI melanoma
[26] = system: PC-3 prostate
[27] = system: 786-0 renal
[28] = system: ACHN renal
[29] = system: HCT-116 colon
[30] = system: HS 578T breast
[31] = system: M14 melanoma
[32] = system: RPMI-8226 leukemia
[33] = system: OVCAR-8 ovarian
[34] = system: DU-145 prostate
[35] = system: OVCAR-3 ovarian
[36] = system: SF-539 CNS
[37] = system: SK-MEL-28 melanoma
[38] = system: MDA-MB-435
[39] = system: A498 renal
[40] = system: NCI-H460 lung
[41] = system: T-47D breast
[42] = system: OVCAR-5 ovarian
[43] = system: MCF7 breast
[44] = system: SNB-19 CNS
[45] = system: HOP-92 NSCLC
[46] = system: CCRF-CEM leukemia
[47] = system: SW-620 colon
[48] = system: MDA-N
[49] = system: HCT-15 colon
[50] = system: KM12 colon
[51] = system: COLO 205 colon
[52] = system: IGROV1 ovarian
[53] = system: UO-31 renal
[54] = system: U251 CNS
[55] = system: CAKI-1 renal
[56] = system: SF-295 CNS
[57] = system: HL-60(TB) leukemia
[58] = system: SR leukemia
[59] = system: MALME-3M melanoma

Compound: C/C(O)=C(\C=NC(=S)c1cccnc1)C(=O)Nc1ccccc1C
- TGI [1]: > 100 µM
- TGI [2]: > 100 µM
- TGI [3]: > 100 µM
- TGI [4]: > 100 µM
- TGI [5]: > 100 µM
- TGI [6]: > 100 µM
- TGI [7]: > 100 µM
- TGI [8]: > 100 µM
- TGI [9]: > 100 µM
- TGI [10]: > 100 µM
- TGI [11]: > 100 µM
- TGI [12]: > 100 µM
- TGI [13]: > 100 µM
- TGI [14]: > 100 µM
- TGI [15]: > 100 µM
- TGI [16]: > 100 µM
- TGI [17]: > 100 µM
- TGI [18]: > 100 µM
- TGI [19]: > 100 µM
- TGI [20]: > 100 µM
- TGI [21]: > 100 µM
- TGI [22]: > 100 µM
- TGI [23]: > 100 µM
- TGI [24]: > 100 µM
- TGI [25]: > 100 µM
- TGI [26]: > 100 µM
- TGI [27]: > 100 µM
- TGI [28]: > 100 µM
- TGI [29]: > 100 µM
- TGI [30]: > 100 µM
- TGI [31]: > 100 µM
- TGI [32]: > 100 µM
- TGI [33]: > 100 µM
- TGI [34]: > 100 µM
- TGI [35]: > 100 µM
- TGI [36]: > 100 µM
- TGI [37]: > 100 µM
- TGI [38]: > 100 µM
- TGI [39]: > 100 µM
- TGI [40]: > 100 µM
- TGI [41]: > 100 µM
- TGI [42]: > 100 µM
- TGI [43]: > 100 µM
- TGI [44]: > 100 µM
- TGI [45]: > 100 µM
- TGI [46]: > 100 µM
- TGI [47]: > 100 µM
- TGI [48]: > 100 µM
- TGI [49]: > 100 µM
- TGI [50]: > 100 µM
- TGI [51]: > 100 µM
- TGI [52]: > 100 µM
- TGI [53]: > 100 µM
- TGI [54]: > 100 µM
- TGI [55]: > 100 µM
- TGI [56]: > 100 µM

Compound: O=C(Cn1c2c(c3ccccc31)CCCC2)N1CCCCC1
- TGI [2]: > 100 µM
- TGI [3]: > 100 µM
- TGI [4]: > 100 µM
- TGI [7]: > 100 µM
- TGI [8]: > 100 µM
- TGI [9]: > 100 µM
- TGI [10]: > 100 µM
- TGI [11]: > 100 µM
- TGI [12]: > 100 µM
- TGI [13]: > 100 µM
- TGI [14]: > 100 µM
- TGI [15]: > 100 µM
- TGI [18]: > 100 µM
- TGI [20]: > 100 µM
- TGI [22]: > 100 µM
- TGI [23]: > 100 µM
- TGI [24]: > 100 µM
- TGI [25]: > 100 µM
- TGI [57]: > 100 µM
- TGI [26]: > 100 µM
- TGI [27]: > 100 µM
- TGI [28]: > 100 µM
- TGI [29]: > 100 µM
- TGI [30]: > 100 µM
- TGI [31]: > 100 µM
- TGI [32]: > 100 µM
- TGI [33]: > 100 µM
- TGI [35]: > 100 µM
- TGI [36]: > 100 µM
- TGI [37]: > 100 µM
- TGI [38]: > 100 µM
- TGI [40]: > 100 µM
- TGI [42]: > 100 µM
- TGI [43]: > 100 µM
- TGI [44]: > 100 µM
- TGI [45]: > 100 µM
- TGI [58]: > 100 µM
- TGI [47]: > 100 µM
- TGI [48]: > 100 µM
- TGI [49]: > 100 µM
- TGI [59]: > 100 µM
- TGI [51]: > 100 µM
- TGI [52]: > 100 µM
- TGI [53]: > 100 µM
- TGI [55]: > 100 µM
- TGI [56]: > 100 µM

Compound: Cc1ccc(Nc2nc(=O)c3c([nH]c4ccccc43)s2)cc1
- TGI [4]: 31.3 µM
- TGI [6]: > 100 µM
- TGI [7]: 31.5 µM
- TGI [8]: 25.1 µM
- TGI [9]: > 100 µM
- TGI [10]: 29.9 µM
- TGI [11]: 23.9 µM
- TGI [12]: 21.8 µM
- TGI [13]: 23.2 µM
- TGI [14]: 20.8 µM
- TGI [15]: 55.4 µM
- TGI [16]: 33.8 µM
- TGI [17]: 35.6 µM
- TGI [18]: 21 µM
- TGI [19]: 32.4 µM
- TGI [20]: 31.6 µM
- TGI [21]: 31.6 µM
- TGI [22]: 33.5 µM
- TGI [23]: > 100 µM
- TGI [24]: 64.2 µM
- TGI [25]: 27.1 µM
- TGI [57]: 36.5 µM
- TGI [26]: 28.3 µM
- TGI [27]: 27.6 µM
- TGI [28]: 35.4 µM
- TGI [30]: 75 µM
- TGI [31]: 18.1 µM
- TGI [32]: 23.6 µM
- TGI [33]: 28.7 µM
- TGI [34]: 32.5 µM
- TGI [35]: 27.3 µM
- TGI [36]: 31.6 µM
- TGI [37]: > 100 µM
- TGI [38]: 7.4 µM
- TGI [39]: 37.4 µM
- TGI [40]: 25.7 µM
- TGI [41]: 43.7 µM
- TGI [44]: > 100 µM
- TGI [45]: 25.6 µM
- TGI [58]: > 100 µM
- TGI [46]: 53.3 µM
- TGI [47]: 24.3 µM
- TGI [48]: 5.87 µM
- TGI [49]: 23.1 µM
- TGI [50]: 16.2 µM
- TGI [59]: 26.8 µM
- TGI [51]: 24.7 µM
- TGI [52]: 35.1 µM
- TGI [53]: 7.32 µM
- TGI [54]: 25.5 µM
- TGI [55]: 24.5 µM
- TGI [56]: 24.3 µM

Compound: CC(=O)O[C@H]1CC[C@H]2[C@@H]3CCC4=C/C(=N/OCCN(C)C)CC[C@]4(C)[C@H]3CC[C@]12C
- TGI [1]: 27.8 µM
- TGI [2]: 25.6 µM
- TGI [3]: 19 µM
- TGI [4]: 26.9 µM
- TGI [5]: 15.7 µM
- TGI [6]: > 21.2 µM
- TGI [7]: 21.1 µM
- TGI [8]: 25.6 µM
- TGI [9]: 13 µM
- TGI [10]: 27.8 µM
- TGI [11]: 27 µM
- TGI [12]: 27.5 µM
- TGI [13]: 6.8 µM
- TGI [14]: 9.62 µM
- TGI [15]: 23.5 µM
- TGI [16]: 39.5 µM
- TGI [17]: 27.5 µM
- TGI [18]: 15.4 µM
- TGI [19]: 22.7 µM
- TGI [20]: 33.7 µM
- TGI [21]: 19.1 µM
- TGI [22]: 27.2 µM
- TGI [23]: 24.6 µM
- TGI [24]: 29 µM
- TGI [25]: 11 µM
- TGI [57]: 3.68 µM
- TGI [26]: 27.3 µM
- TGI [27]: 22.8 µM
- TGI [28]: 26.2 µM
- TGI [29]: 16 µM
- TGI [30]: 34.1 µM
- TGI [31]: 10.1 µM
- TGI [32]: 6.27 µM
- TGI [33]: 28.1 µM
- TGI [34]: 31 µM
- TGI [35]: 26.7 µM
- TGI [36]: 7.28 µM
- TGI [37]: 27.8 µM
- TGI [38]: 6.42 µM
- TGI [40]: 20.4 µM
- TGI [41]: 19.5 µM
- TGI [42]: 31.9 µM
- TGI [43]: 17.9 µM
- TGI [44]: 22.4 µM
- TGI [46]: 10.1 µM
- TGI [47]: 23.9 µM
- TGI [48]: 14.4 µM
- TGI [49]: 12.8 µM
- TGI [50]: 18.9 µM
- TGI [59]: 28.6 µM
- TGI [51]: 8.18 µM
- TGI [52]: 26.2 µM
- TGI [53]: 28.1 µM
- TGI [54]: 26.4 µM
- TGI [55]: 27.2 µM
- TGI [56]: 17.5 µM
